These results are taken from patent US20260274892A1, “MACROCYCLIC BROAD SPECTRUM ANTIBIOTICS” (RQx Pharmaceuticals, Inc., priority 2017, published 2026).

Test [1] deals with Escherichia coli ATCC 25922. The experiment in a line: Minimum inhibitory concentration (MIC), CLSI broth micro-dilution, E. coli. Conditions: Escherichia coli, ATCC25922, 22 h, Table 6, cation adjusted Mueller Hinton Broth + 0.002% Tween-80, 35° C. The test is classed as cell-based. The method, boiled down: (§1)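 Antibacterial potency is measured as MIC by the CLSI broth dilution method. Bacteria at OD600 0.0005 in Tween-80-supplemented cation-adjusted Mueller Hinton broth face ten twofold compound dilutions for 22 h at 35° C.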
In general terms: Dilution methods test growth across graded concentrations, often in twofold steps.

The test system of test [2] is Methicillin Resistant Staphylococcus aureus strain USA 200. Briefly: Minimum inhibitory concentration (MIC), CLSI broth micro-dilution, S. aureus. The note with it: Staphylococcus aureus, MRSA / USA200; Table 6; MRSA USA 200; cation adjusted Mueller Hinton Broth + 0.002% Tween-80; 35° C., 22 hours. The test is classed as cell-based. Summed up:
as §1

SMILES strings stand for the structures.

In general, MIC refers to the least concentration at which growth counts as inhibited. For the compound `CCCCCCCc1ccc(-c2ncc(C(=O)N[C@@H](CCN)C(=O)N(C)[C@@H]3C(=O)N[C@@H](C)C(=O)N[C@H](C(=O)NCC#N)Cc4ccc(OCCN)c(c4)-c4cc3ccc4OCCN)c(C)n2)cc1` (racemic) [Compound 240, rac-(8S,11S,14S)-3,18-bis(2-aminoethoxy)-N-(cyanomethyl)-11-methyl-14-[methyl-[rac-(2S)-4-amino-2-[[2-(4-heptylphenyl)-4-methyl-pyrimidine-5-carbonyl]amino]butanoyl]amino]-10,13-dioxo-9,12-diazatricyclo[13.3.1.12,6]icosa-1(18),2(20),3,5,15(19),16-hexaene-8-carboxamide], the minimal inhibitory concentration (MIC) is 0.13 µM in test [1] and 0.012 µM in test [2].

As to `CCCCOc1ccc(-c2ncc(C(=O)N[C@@H](CCN)C(=O)N(C)[C@@H]3C(=O)N[C@@H](C)C(=O)N[C@H](C(=O)NCC#N)Cc4ccc(OCCN)c(c4)-c4cc3ccc4OCCN)c(C)n2)c(C)c1` (racemic) [Compound 242, rac-(8S,11S,14S)-3,18-bis(2-aminoethoxy)-N-(cyanomethyl)-11-methyl-14-[methyl-[rac-(2S)-4-amino-2-[[2-(4-butoxy-2-methyl-phenyl)-4-methyl-pyrimidine-5-carbonyl]amino]butanoyl]amino]-10,13-dioxo-9,12-diazatricyclo[13.3.1.12,6]icosa-1(18),2(20),3,5,15(19),16-hexaene-8-carboxamide], the MIC in test [1] was 0.39 µM; in test [2] it was 0.016 µM.

Consider `CCCCOc1c(C)cc(-c2ncc(C(=O)N[C@@H](CCN)C(=O)N(C)[C@@H]3C(=O)N[C@@H](C)C(=O)N[C@H](C(=O)NCC#N)Cc4ccc(OCCN)c(c4)-c4cc3ccc4OCCN)c(C)n2)cc1C` (racemic) [Compound 243, rac-(8S,11S,14S)-3,18-bis(2-aminoethoxy)-N-(cyanomethyl)-11-methyl-14-[methyl-[rac-(2S)-4-amino-2-[[2-(4-butoxy-3,5-dimethyl-phenyl)-4-methyl-pyrimidine-5-carbonyl]amino]butanoyl]amino]-10,13-dioxo-9,12-diazatricyclo[13.3.1.12,6]icosa-1(18),2(20),3,5,15(19),16-hexaene-8-carboxamide], for which the MIC came to 0.13 µM in test [1] and 0.008 µM in test [2].

Take `Cc1nc(-c2ccc(OC(C)C)cc2)ncc1C(=O)N[C@@H](CCN)C(=O)N(C)[C@@H]1C(=O)N[C@@H](C)C(=O)N[C@H](C(=O)NCC#N)Cc2ccc(OCCN)c(c2)-c2cc1ccc2OCCN` (racemic) [Compound 246, rac-(8S,11S,14S)-3,18-bis(2-aminoethoxy)-N-(cyanomethyl)-11-methyl-14-[methyl-[rac-(2S)-4-amino-2-[[2-(4-isopropoxyphenyl)-4-methyl-pyrimidine-5-carbonyl]amino]butanoyl]amino]-10,13-dioxo-9,12-diazatricyclo[13.3.1.12,6]icosa-1(18),2(20),3,5,15(19),16-hexaene-8-carboxamide]: the MIC in test [1] was 0.4 µM; in test [2], 0.067 µM.

On to `CCCCOc1ccc(-c2ncc(C(=O)N[C@@H](CCN)C(=O)N(C)[C@@H]3C(=O)N[C@@H](C)C(=O)N[C@H](C(=O)NCC#N)Cc4ccc(OCCN)c(c4)-c4cc3ccc4OCCN)c(C)n2)cc1Cl` (racemic) [Compound 247, rac-(8S,11S,14S)-3,18-bis(2-aminoethoxy)-N-(cyanomethyl)-11-methyl-14-[methyl-[rac-(2S)-4-amino-2-[[2-(4-butoxy-3-chloro-phenyl)-4-methyl-pyrimidine-5-carbonyl]amino]butanoyl]amino]-10,13-dioxo-9,12-diazatricyclo[13.3.1.12,6]icosa-1(18),2(20),3,5,15(19),16-hexaene-8-carboxamide], for which the MIC was determined as 0.19 µM in test [1] and 0.016 µM in test [2].

Turning to `CCCCCCOc1ccc(-c2ncc(C(=O)N[C@@H](CCN)C(=O)N(C)[C@@H]3C(=O)N[C@@H](C)C(=O)N[C@H](C(=O)NCC#N)Cc4ccc(OCCN)c(c4)-c4cc3ccc4OCCN)c(C)n2)cc1` (racemic) [Compound 248, rac-(8S,11S,14S)-3,18-bis(2-aminoethoxy)-N-(cyanomethyl)-11-methyl-14-[methyl-[rac-(2S)-4-amino-2-[[2-(4-hexoxyphenyl)-4-methyl-pyrimidine-5-carbonyl]amino]butanoyl]amino]-10,13-dioxo-9,12-diazatricyclo[13.3.1.12,6]icosa-1(18),2(20),3,5,15(19),16-hexaene-8-carboxamide], the MIC in test [1] was determined as 0.13 µM; in test [2], 0.016 µM.

For `Cc1nc(-c2ccc3c(c2)CCC(C)(C)O3)ncc1C(=O)N[C@@H](CCN)C(=O)N(C)[C@@H]1C(=O)N[C@@H](C)C(=O)N[C@H](C(=O)NCC#N)Cc2ccc(OCCN)c(c2)-c2cc1ccc2OCCN` (racemic) [Compound 249, rac-(8S,11S,14S)-3,18-bis(2-aminoethoxy)-N-(cyanomethyl)-11-methyl-14-[methyl-[rac-(2S)-4-amino-2-[[2-(2,2-dimethylchroman-6-yl)-4-methyl-pyrimidine-5-carbonyl]amino]butanoyl]amino]-10,13-dioxo-9,12-diazatricyclo[13.3.1.12,6]icosa-1(18),2(20),3,5,15(19),16-hexaene-8-carboxamide], the MIC came out at 0.35 µM in test [1] and 0.043 µM in test [2].

As for `Cc1nc(-c2ccc(OC(C)(C)C)cc2)ncc1C(=O)N[C@@H](CCN)C(=O)N(C)[C@@H]1C(=O)N[C@@H](C)C(=O)N[C@H](C(=O)NCC#N)Cc2ccc(OCCN)c(c2)-c2cc1ccc2OCCN` (racemic) [Compound 250, rac-(8S,11S,14S)-3,18-bis(2-aminoethoxy)-N-(cyanomethyl)-11-methyl-14-[methyl-[rac-(2S)-4-amino-2-[[2-(4-tert-butoxyphenyl)-4-methyl-pyrimidine-5-carbonyl]amino]butanoyl]amino]-10,13-dioxo-9,12-diazatricyclo[13.3.1.12,6]icosa-1(18),2(20),3,5,15(19),16-hexaene-8-carboxamide], the MIC is 0.35 µM in test [1] and 0.066 µM in test [2].

For `Cc1nc(-c2cccc(OC(C)C)c2)ncc1C(=O)N[C@@H](CCN)C(=O)N(C)[C@@H]1C(=O)N[C@@H](C)C(=O)N[C@H](C(=O)NCC#N)Cc2ccc(OCCN)c(c2)-c2cc1ccc2OCCN` (racemic) [Compound 251, rac-(8S,11S,14S)-3,18-bis(2-aminoethoxy)-N-(cyanomethyl)-11-methyl-14-[methyl-[rac-(2S)-4-amino-2-[[2-(3-isopropoxyphenyl)-4-methyl-pyrimidine-5-carbonyl]amino]butanoyl]amino]-10,13-dioxo-9,12-diazatricyclo[13.3.1.12,6]icosa-1(18),2(20),3,5,15(19),16-hexaene-8-carboxamide], the MIC in test [1] was 1.1 µM; in test [2] it was 0.067 µM.

`Cc1nc(-c2ccc(C(C)(C)C)cc2)nc(C)c1C(=O)N[C@@H](CCN)C(=O)N(C)[C@@H]1C(=O)N[C@@H](C)C(=O)N[C@H](C(=O)NCC#N)Cc2ccc(OCCN)c(c2)-c2cc1ccc2OCCN` (racemic) [Compound 253, rac-(8S,11S,14S)-3,18-bis(2-aminoethoxy)-N-(cyanomethyl)-11-methyl-14-[methyl-[rac-(2S)-4-amino-2-[[2-(4-tert-butylphenyl)-4,6-dimethyl-pyrimidine-5-carbonyl]amino]butanoyl]amino]-10,13-dioxo-9,12-diazatricyclo[13.3.1.12,6]icosa-1(18),2(20),3,5,15(19),16-hexaene-8-carboxamide]: the results for the MIC in test [1] and in test [2] were 0.14 µM and 0.012 µM, respectively.

As to `Cc1nc(-c2ccc(C(C)(C)C)cc2)nc(C)c1C(=O)N[C@@H](CCN)C(=O)N(C)[C@@H]1C(=O)N[C@@H](C)C(=O)N[C@H](C(=O)NCC#N)Cc2ccc(O)c(c2)-c2cc1ccc2OCCN` (racemic) [Compound 254, rac-(8S,11S,14S)-18-(2-aminoethoxy)-N-(cyanomethyl)-3-hydroxy-11-methyl-14-[methyl-[rac-(2S)-4-amino-2-[[2-(4-tert-butylphenyl)-4,6-dimethyl-pyrimidine-5-carbonyl]amino]butanoyl]amino]-10,13-dioxo-9,12-diazatricyclo[13.3.1.12,6]icosa-1(18),2(20),3,5,15(19),16-hexaene-8-carboxamide], the values for the MIC in test [1] and in test [2] were 0.24 µM and 0.061 µM, respectively.

Consider `CCCCc1ccc(-c2nc(C)c(C(=O)N[C@@H](CCN)C(=O)N(C)[C@@H]3C(=O)N[C@@H](C)C(=O)N[C@H](C(=O)NCC#N)Cc4ccc(OCCN)c(c4)-c4cc3ccc4OCCN)c(C)n2)cc1` (racemic) [Compound 255, rac-(8S,11S,14S)-3,18-bis(2-aminoethoxy)-N-(cyanomethyl)-11-methyl-14-[methyl-[rac-(2S)-4-amino-2-[[2-(4-butylphenyl)-4,6-dimethyl-pyrimidine-5-carbonyl]amino]butanoyl]amino]-10,13-dioxo-9,12-diazatricyclo[13.3.1.12,6]icosa-1(18),2(20),3,5,15(19),16-hexaene-8-carboxamide], for which the values for the MIC in test [1] and in test [2] were 0.066 µM and 0.0082 µM, respectively.

In the case of `Cc1nc(-c2ccc(CC(C)C)cc2)nc(C)c1C(=O)N[C@@H](CCN)C(=O)N(C)[C@@H]1C(=O)N[C@@H](C)C(=O)N[C@H](C(=O)NCC#N)Cc2ccc(OCCN)c(c2)-c2cc1ccc2OCCN` (racemic) [Compound 258, rac-(8S,11S,14S)-3,18-bis(2-aminoethoxy)-N-(cyanomethyl)-11-methyl-14-[methyl-[rac-(2S)-4-amino-2-[[2-(4-isobutylphenyl)-4,6-dimethyl-pyrimidine-5-carbonyl]amino]butanoyl]amino]-10,13-dioxo-9,12-diazatricyclo[13.3.1.12,6]icosa-1(18),2(20),3,5,15(19),16-hexaene-8-carboxamide], the MIC in test [1] is 0.13 µM; in test [2], 0.012 µM.
